Results: patent US8945397B2, “Methods of inhibiting cyanobacteria growth by administering gramine derivatives” (priority 2012, dated 2015)
In brackets after ≈: the same amount, converted by molar mass. Entries after “also recorded” stand apart in the source; their conditions may differ.

Experiments:
[1] = system: M. Aeruginosa; assay: Liquid culture optical absorption assay (OD600) of M. aeruginosa growth, 15 days; assay type: cell-based, Microcystis aeruginosa; conditions: for OD600 Measured at Day 15 (Starting OD600 at Day 0 is 0.100): 0.5 mg/L compound, liquid culture, control 2.83; for Inhibition of M. aeruginosa growth in words (liquid culture): 0.5 mg/L, Table 2 and FIG. 3
Method: To quantitatively measure M. Aeruginosa cell growth in responding to various gamine compounds, cell densities were determined by an optical absorption assay as measured by a spectrophotometer (Nanodrop 2000, Thermo Scientific). In the optical absorption assay, the absorbance of radiation (light) is measured as a function of frequency (wavelength). For this optical absorption assay, the algal cell density was determined at 600 nm wavelength. Equal amount of starting cells (optical density at wavelength 600 nm, OD600, was at 0.100 on Day 0) were placed in freshwater culture for 15 days of growth. After 15 days, the algae cell suspension is pipetted into a cuvette and placed within the spectrophotometer for the optical absorption assay.
There is a clear and distinct decrease in M. Aeruginosa algae growth when administered with 5,6-dichlogramine (Compound No. 9) and with 5,6,7-trichlorogramine (Compound No. 12) compared to M. Aeruginosa algae growth in control samples.

[2] = system: M. aeruginosa cyanobacteria, isolate strain 2667; assay: Petri dish screen of gramine compounds for M. aeruginosa growth inhibition; assay type: cell-based, Microcystis aeruginosa; conditions: about 0.5 mg/L compound in BG-11 medium, after 15 days, FIG. 2
Method: The screen tested the compounds on M. aeruginosa cyanobacteria, isolate strain 2667 from Culture Collection of Algae (CCA) at the University of Texas at Austin. For the initial screening test, the twelve compounds were each administered at different concentrations of: 0.5 mg/L, 1.0 mg/L, 2.0 mg/L, 4.0 mg/L, and 8.0 mg/L. The compounds were added to a freshwater culture medium (BG-11 Medium from the CCA, UTEX) in petri dishes. The petri dish plates were then incubated at about 22° C. in a lighted growth chamber with about 16-hr light and about 8-hr dark. M. aeruginosa algae growth in the petri dishes were examined and documented after 15 days of incubation.
M. aeruginosa cells were streaked out on BG-11 medium that contained about 0.5 mg/L of the indicated compound. […] The faint algae smears for petri dishes streaked with 5,6-dichlogramine show the original algae cells that had died in the petri dish. […] The faint algae smears for petri dishes streaked with 5,6,7-trichlogramine show the original algae cells that had died in the petri dish.

[3] = system: M. Aeruginosa; assay: Optical absorption assay of M. aeruginosa growth at varying concentrations, 8 days, with LC50 calculation; assay type: cell-based, Microcystis aeruginosa; conditions: for OD600 as % of the corresponding OD600 measurement of the control sample: 8 days; for OD600 of M. aeruginosa after 8 days: start OD600 0.1, control about 2.4; for LC50: Microcystis aeruginosa, 192 h, read-out: Lethal Concentration 50 (LC50)
Method: (§1) Different concentrations of 5,6-dichlorogramine were administered to M. aeruginosa cells as indicated. M. aeruginosa cell density measurements were taken every 24 hours. […] During the first 3 days, the M. aeruginosa cell densities for the control sample and the 5,6-dichlorogramine samples were similar. But starting on day 4, there was larger differentiation in M. aeruginosa cell densities between the control samples and the 5,6-dichlorogramine administered samples. […] In contrast, the OD600 of M. aeruginosa after 8 days of exposure to 0.05 mg/L 5,6-dichlorogramine was about 0.9, only about 38% of the corresponding OD600 measurement of the control sample. The OD600 measurement for M. aeruginosa after 8 days of exposure to about 0.2 mg/L 5,6-dichlorogramine was about 0.6, only about 25% of the corresponding OD600 measurement of the control sample. The OD600 measurement for M. aeruginosa after 8 days of exposure to about 0.8 mg/L 5,6-dichlorogramine was about 0.3, only about 13% of the corresponding OD600 measurement of the control sample.
as §1, with “5,6,7-trichlorogramine” for “5,6-dichlorogramine”
LC50 is a common way to describe the median lethal concentration of an administered agent in a medium, such as air or water, needed to kill half of the organism population living within the medium. LC50 is a well-known method of describing the acute toxicity of an administered agent on the target organism population.
(§2) In FIG. 6, the optical density measurement (OD600) of the M. aeruginosa cells on day 8 was plotted against the administered 5,6-dichlorogramine concentration. […] Half of about 2.4 is about 1.2, and according to FIG. 6, the 1.2 optical density measurement corresponds to an approximately 0.03 mg/L 5,6-dichlorogramine concentration. Based on these calculations, the effective amount of 5,6-dichlorogramine to administer to control the growth and spread of M. aeruginosa algae in fresh water may be a 5,6-dichlorogramine concentration ranging between about 0.01 mg/L and about 0.05 mg/L, and may be more specifically about 0.03 mg/L.
as §2, with “7,” for “6,”, “(ODo)” for “(OD600)”, “5,6,7-trichlorogramine” for “5,6-dichlorogramine”

[4] = system: M. Aeruginosa; assay: Effective potency duration test in 1 L tap fresh water; assay type: cell-based, Microcystis aeruginosa; conditions: about 0.05 mg/L; for OD600 after 180 days / OD600 after 15 days of M. aeruginosa growth: 1 L tap fresh water; for OD600 after 15 days of M. aeruginosa growth: unadministered control 0.119; for duration of effectiveness after administration: single administration
Method: Both 5,6-dichlorogramine and 5,6,7-trichlorogramine are not only potent M. aeruginosa growth inhibitors, but they are effective inhibitors for a long period of time. In an experiment to test the effective potency duration of the compound, an equal amount of M. aeruginosa was grown in each of two containers, each containing about 1 L of fresh water from an urban sink tap. One container was administered with about 0.05 mg/L of 5,6-dichlorogramine, and the control container was not administered with any compounds. After 15 days of M. aeruginosa growth, the OD600 measurement for the unadministered M. aeruginosa freshwater sample was 0.119. The unadministered M. aeruginosa freshwater sample was discarded after 15 days. In contrast, after 15 days of M. aeruginosa growth, the OD600 measurement for the 5,6-dichlorogramine administered freshwater sample was 0.003. After 180 days, the OD600 measurement for the M. aeruginosa freshwater sample administered with 5,6-dichlorogramine remained at 0.003.
In another experiment, an equal amount of M. aeruginosa was grown in each of two containers, each containing about 1 L of fresh water from an urban sink tap. One container was administered with about 0.05 mg/L of 5,6,7-trichlorogramine, and the control container was not administered with any compounds. After 15 days of M. aeruginosa growth, the OD600 measurement for the unadministered M. aeruginosa freshwater sample was 0.119. The unadministered M. aeruginosa freshwater sample was discarded after 15 days. In contrast, after 15 days of M. aeruginosa growth, the OD600 measurement for the 5,6,7-trichlrogramine administered freshwater sample was 0.003. After 180 days, the OD600 measurement for the M. aeruginosa freshwater sample administered with 5,6,7-trichlorogramine remained at 0.003.

[5] = system: Arabidopsis thaliana; assay: Toxicity to Arabidopsis thaliana plants in petri dishes; assay type: in vivo; conditions: 8 mg/L in MS medium
Method: The effects of both compounds were tested on Arabidopsis thaliana, a small flowering plant that is widely used as an experimental model plant for laboratory studies. A. thaliana seeds were placed in petri dishes containing standard plant growth media with one gramine compound added (about 8 mg/L). For the control sample, the seeds were placed on the identical growth media without any gramine compound added. All petri dishes containing A. thaliana were kept in a lighted plant growth chamber at 22° C. with cycles of 16-hr light and 8-hr dark. Seed germination and seedling development were closely monitored and documented every 24 hours.
(§3) FIGS. 8a and 8b show images of A. thaliana plants after 8 days of plant growth, or 8 days after germination. The A. thaliana plants were grown in petri dishes filled with Murashige and Skoog medium (MS plant growth medium containing both macronutrients, micronutrients, and vitamins) purchased from Sigma (Cat #M5519)).
as §3, with “9a” for “8a”, “9b” for “8b”, “10” for “8”, “of” for “of plant”

[6] = system: N. closterium algae; conditions: Li et al. 2009; cited from earlier work
[7] = system: M. Aeruginosa; conditions: according to the Hong articles; cited from earlier work
[8] = system: M. aeruginosa cyanobacterium; conditions: U.S. Pat. No. 7,612,049; cited from earlier work

SMILES: CN(C)Cc1c[nH]c2ccc(Cl)cc12 [Compound No. 1, 5-chlorogramine]
- OD600 Measured at Day 15 (Starting OD600 at Day 0 is 0.100) [1]: 1.89
- Inhibition of M. aeruginosa growth in words (liquid culture) [1]: some inhibitory effects

SMILES: CN(C)Cc1c[nH]c2cc(Cl)c(Cl)cc12 [Compound No. 9, 5,6-dichlorogramine]
- M. aeruginosa growth in petri dishes [2]: no M. aeruginosa growth; also recorded: inhibited M. aeruginosa growth completely
- Inhibition of M. aeruginosa growth in words (liquid culture) [1]: significantly inhibit the growth
- OD600 as % of the corresponding OD600 measurement of the control sample ([3]; 0.05 mg/L): about 38%
- OD600 of M. aeruginosa after 8 days ([3]; 0.05 mg/L): about 0.9
- LC50 [3]: ~0.03 µg/mL (≈ 0.123 µM)
- OD600 as % of the corresponding OD600 measurement of the control sample ([3]; about 0.2 mg/L): about 25%
- OD600 of M. aeruginosa after 8 days ([3]; about 0.2 mg/L): about 0.6
- OD600 as % of the corresponding OD600 measurement of the control sample ([3]; about 0.8 mg/L): about 13%
- OD600 of M. aeruginosa after 8 days ([3]; about 0.8 mg/L): about 0.3
- OD600 after 180 days [4]: 0.003
- OD600 after 15 days of M. aeruginosa growth [4]: 0.003
- duration of effectiveness after administration [4]: at least 180 days
- growth and development of A. thaliana versus control ([5]; 8 days after germination): no growth or developmental difference
- inhibition of growth of saltwater N. closterium algae [6]: inhibit the growth

SMILES: CN(C)Cc1c[nH]c2c(Cl)c(Cl)c(Cl)cc12 [Compound No. 12, 5,6,7-trichlorogramine]
- M. aeruginosa growth in petri dishes [2]: no M. aeruginosa growth; also recorded: inhibited M. aeruginosa growth completely
- Inhibition of M. aeruginosa growth in words (liquid culture) [1]: significantly inhibit the growth
- OD600 as % of the corresponding OD600 measurement of the control sample ([3]; 0.05 mg/L): about 38%
- OD600 of M. aeruginosa after 8 days ([3]; 0.05 mg/L): about 0.9
- LC50 [3]: ~0.03 µg/mL (≈ 0.108 µM)
- OD600 as % of the corresponding OD600 measurement of the control sample ([3]; about 0.2 mg/L): about 25%
- OD600 of M. aeruginosa after 8 days ([3]; about 0.2 mg/L): about 0.6
- OD600 as % of the corresponding OD600 measurement of the control sample ([3]; about 0.8 mg/L): about 13%
- OD600 of M. aeruginosa after 8 days ([3]; about 0.8 mg/L): about 0.3
- OD600 after 180 days [4]: 0.003
- OD600 after 15 days of M. aeruginosa growth [4]: 0.003
- duration of effectiveness after administration [4]: at least 180 days
- growth and development of A. thaliana versus control ([5]; 10 days after germination): no growth or developmental difference

SMILES: CN(C)Cc1c[nH]c2ccccc12 [N,N-dimethyl-3-amino-methylindole]
- concentration needed to inhibit the growth of M. aeruginosa [7]: at least 8 mg/L

SMILES: CN(C)Cc1c[nH]c2ccc(Br)cc12 [compound 2, 5-bromogramine]
- OD600 Measured at Day 15 (Starting OD600 at Day 0 is 0.100) [1]: 1.95
- Inhibition of M. aeruginosa growth in words (liquid culture) [1]: some inhibitory effects

SMILES: COc1ccc2[nH]cc(CN(C)C)c2c1 [compound 3, 5-methoxygramine]
- OD600 Measured at Day 15 (Starting OD600 at Day 0 is 0.100) [1]: 2.45

SMILES: Cc1cccc2[nH]cc(CN(C)C)c12 [compound 4, 4-methylgramine]
- OD600 Measured at Day 15 (Starting OD600 at Day 0 is 0.100) [1]: 2.49

SMILES: CN(C)Cc1c[nH]c2ccc(C#N)cc12 [compound 5, 5-cyanogramine]
- OD600 Measured at Day 15 (Starting OD600 at Day 0 is 0.100) [1]: 2.32

SMILES: CN(C)Cc1c[nH]c2cc(OCc3ccccc3)ccc12 [compound 7, 6-benzyloxygramine]
- OD600 Measured at Day 15 (Starting OD600 at Day 0 is 0.100) [1]: 2.12
- Inhibition of M. aeruginosa growth in words (liquid culture) [1]: some inhibitory effects

SMILES: CN(C)Cc1c[nH]c2cccc(OCc3ccccc3)c12 [compound 8, 4-benzyloxygramine]
- OD600 Measured at Day 15 (Starting OD600 at Day 0 is 0.100) [1]: 2.54

SMILES: COc1cccc2[nH]cc(CN(C)C)c12 [compound 10, 4-methoxygramine]
- OD600 Measured at Day 15 (Starting OD600 at Day 0 is 0.100) [1]: 2.66

SMILES: CN(C)Cc1c[nH]c2cccc(C#N)c12 [compound 11, 4-cyanogramine]
- OD600 Measured at Day 15 (Starting OD600 at Day 0 is 0.100) [1]: 2.50

SMILES: N[C@H]1C(O)O[C@H](CO)[C@@H](O)[C@@H]1O (some centres unmarked) [glucosamine]
- concentration to inhibit the growth of M. aeruginosa [8]: 10-50 ppm
